Assays:
PTGER2 (EP2) = PTGER2 (EP2) (Homo sapiens (Human), UniProt P43116); experiment: hEP2 b-arrestin assay (PathHunter HEK 293 PTGER2 b-arrestin cells); format: cell-based; settings: antagonistic activity, beta-arrestin assay; read-out: hEP2 b-arr IC50
Experimental: Plate is pre-incubated 15 minutes at 37° C. Then five microliters of PGE2 (final conc. 5 μM) are transferred into the assay plate. Plate is incubated 120 minutes at 37° C.
(each concentration is measured in duplicate)

PTGER4 (EP4) = PTGER4 (EP4) (Homo sapiens (Human), UniProt P35408); experiment: cell-based
PTGER4 (EP4), sequence (P35408 whole entry): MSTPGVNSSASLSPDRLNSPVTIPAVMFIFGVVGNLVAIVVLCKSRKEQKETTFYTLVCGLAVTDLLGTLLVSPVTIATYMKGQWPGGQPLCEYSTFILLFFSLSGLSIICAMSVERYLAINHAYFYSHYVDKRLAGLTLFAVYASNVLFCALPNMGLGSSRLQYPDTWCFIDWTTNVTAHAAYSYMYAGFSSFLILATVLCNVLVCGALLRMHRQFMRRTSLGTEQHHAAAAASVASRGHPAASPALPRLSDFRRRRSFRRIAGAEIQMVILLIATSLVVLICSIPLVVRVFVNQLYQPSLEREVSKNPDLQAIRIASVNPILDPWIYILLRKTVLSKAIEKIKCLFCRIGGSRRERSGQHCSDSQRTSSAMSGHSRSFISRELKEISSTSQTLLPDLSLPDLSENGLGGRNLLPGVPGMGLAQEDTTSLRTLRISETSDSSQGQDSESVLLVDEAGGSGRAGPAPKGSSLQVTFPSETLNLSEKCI

PTGER2 (EP2), sequence (P43116 whole entry): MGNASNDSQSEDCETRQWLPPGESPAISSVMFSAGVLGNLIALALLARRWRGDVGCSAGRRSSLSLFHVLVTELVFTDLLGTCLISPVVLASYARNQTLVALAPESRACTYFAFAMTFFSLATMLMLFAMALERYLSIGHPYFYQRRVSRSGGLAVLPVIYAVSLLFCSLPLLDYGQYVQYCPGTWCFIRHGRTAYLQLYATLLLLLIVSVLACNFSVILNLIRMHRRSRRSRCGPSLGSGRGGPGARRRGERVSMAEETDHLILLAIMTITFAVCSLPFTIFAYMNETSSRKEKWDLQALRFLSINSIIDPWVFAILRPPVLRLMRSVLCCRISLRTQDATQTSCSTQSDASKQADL

Structure (SMILES)	IC50 (PTGER2 (EP2)) [nM]	IC50 (PTGER4 (EP4)) [nM]
CCOc1cc(-c2cc(NCCc3ccc4sccc4c3)ncn2)cc(F)c1CC(=O)O [Example 370, {4-[6-(2-Benzo[b]thiophen-5-yl-ethylamino)-pyrimidin-4-yl]-2-ethoxy-6-fluoro-phenyl}-acetic acid]	438	105
CCOc1cc(-c2cc(NCCc3cc4ccsc4cc3OC)ncn2)cc(F)c1CC(=O)O [Example 371, (2-Ethoxy-6-fluoro-4-{6-[2-(6-methoxy-benzo[b]thiophen-5-yl)-ethylamino]-pyrimidin-4-yl}-phenyl)-acetic acid]	86	88
CCOc1cc(-c2cc(NCCc3ccc4sccc4c3C)ncn2)cc(F)c1CC(=O)O [Example 372, (2-Ethoxy-6-fluoro-4-{6-[2-(4-methyl-benzo[b]thiophen-5-yl)-ethylamino]-pyrimidin-4-yl}-phenyl)-acetic acid]	75	195
CCOc1cc(-c2cc(NCCc3cc4c(cc3OC)OCCO4)ncn2)cc(F)c1CC(=O)O [Example 373, (2-Ethoxy-6-fluoro-4-{6-[2-(7-methoxy-2,3-dihydro-benzo[1,4]dioxin-6-yl)-ethylamino]-pyrimidin-4-yl}-phenyl)-acetic acid]	257	118
CCOc1cc(-c2cc(NCCc3c(OC)cc4ccccc4c3C)ncn2)cc(F)c1CC(=O)O [Example 374, (2-Ethoxy-6-fluoro-4-{6-[2-(3-methoxy-1-methyl-naphthalen-2-yl)-ethylamino]-pyrimidin-4-yl}-phenyl)-acetic acid]	334	52
CCOc1cc(-c2cc(NCCc3ccc4sccc4c3F)ncn2)cc(F)c1CC(=O)O [Example 375, (2-Ethoxy-6-fluoro-4-{6-[2-(4-fluoro-benzo[b]thiophen-5-yl)-ethylamino]-pyrimidin-4-yl}-phenyl)-acetic acid]	229	46
CCOc1cc(-c2cc(NCCc3ccc4ccsc4c3C)ncn2)sc1C(=O)O [Example 376, 3-Ethoxy-5-{6-[2-(7-methyl-benzo[b]thiophen-6-yl)-ethylamino]-pyrimidin-4-yl}-thiophene-2-carboxylic acid]	50	13
CCCc1cc(-c2cc(NCCc3cc4ccsc4cc3OC)ncn2)ccc1C(=O)O [Example 377, 4-{6-[2-(6-Methoxy-benzo[b]thiophen-5-yl)-ethylamino]-pyrimidin-4-yl}-2-propyl-benzoic acid]	8	68
CCCc1cc(-c2cc(NCCc3ccc4sccc4c3F)ncn2)ccc1C(=O)O [Example 378, 4-{6-[2-(4-Fluoro-benzo[b]thiophen-5-yl)-ethylamino]-pyrimidin-4-yl}-2-propyl-benzoic acid]	20	36
CCCc1cc(-c2cc(NCCc3cc4c(cc3OC)OCCO4)ncn2)ccc1C(=O)O [Example 379, 4-{6-[2-(7-Methoxy-2,3-dihydro-benzo[1,4]dioxin-6-yl)-ethylamino]-pyrimidin-4-yl}-2-propyl-benzoic acid]	51	155
CCCc1cc(-c2cc(NCCc3c(OC)cc4ccccc4c3C)ncn2)ccc1C(=O)O [Example 380, 4-{6-[2-(3-Methoxy-1-methyl-naphthalen-2-yl)-ethylamino]-pyrimidin-4-yl}-2-propyl-benzoic acid]	16	17
COc1cc2sccc2cc1CCNc1cc(-c2ccc(CC(=O)O)c(OC)c2)ncn1 [Example 381, (2-Methoxy-4-{6-[2-(6-methoxy-benzo[b]thiophen-5-yl)-ethylamino]-pyrimidin-4-yl}-phenyl)-acetic acid]	51	126
COc1cc(-c2cc(NCCc3ccc4sccc4c3F)ncn2)ccc1CC(=O)O [Example 382, (4-{6-[2-(4-Fluoro-benzo[b]thiophen-5-yl)-ethylamino]-pyrimidin-4-yl}-2-methoxy-phenyl)-acetic acid]	160	81

Reference: patent US11839613B2, “Pyrimidine derivatives as PGE2 receptor modulators” (IDORSIA PHARMACEUTICALS LTD, priority 2017, dated 2023)
